In article PMC7912614, “(2-Aminobenzothiazole)-Methyl-1,1-Bisphosphonic Acids: Targeting Matrix Metalloproteinase 13 Inhibition to the Bone” (Pharmaceuticals, 2021):

How the values were obtained:
MMP-2 = molecular target: T1, MMP-2 (Homo sapiens, UniProt P08253); assay: fluorometric MMP inhibition assay, MMP-2 catalytic domain; assay type: biochemical; conditions: for Ligand Efficiency MMP-2: calculated from IC50 values of Table 2; for IC50: catalytic domain, fluorometric assay, mean ± SEM of at least 3 experiments; for selectivity toward MMP-8 (MMP-2 inhibition versus MMP-8): ratio IC50 MMP-8 / IC50 MMP-2
T1 construct: Catalytic domains of MMP-2, -8, -9, and -13 were obtained from Enzo Life Sciences; purchased Enzo Life Sciences
T1 sequence (P08253 110-446 limits assumed): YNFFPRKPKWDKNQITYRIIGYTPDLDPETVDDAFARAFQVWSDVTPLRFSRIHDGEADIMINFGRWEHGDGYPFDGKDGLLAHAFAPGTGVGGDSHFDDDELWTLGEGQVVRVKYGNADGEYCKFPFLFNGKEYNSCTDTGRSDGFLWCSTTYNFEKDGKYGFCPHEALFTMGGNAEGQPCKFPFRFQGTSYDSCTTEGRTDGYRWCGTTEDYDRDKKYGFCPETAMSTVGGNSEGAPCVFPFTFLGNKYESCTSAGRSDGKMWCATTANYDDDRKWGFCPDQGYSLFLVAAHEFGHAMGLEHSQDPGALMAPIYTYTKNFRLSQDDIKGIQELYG
Procedure: (§1) Catalytic domains of MMP-2, -8, -9, and -13 were obtained from Enzo Life Sciences. 96-well white microtiter plates (Corning, NBS) were used to carry out the assays (in triplicate). The assay measurements were performed by preparing dilutions to six different concentrations (1 nM–100 µM) of each inhibitor in a fluorometric assay buffer (50 mM Tris·HCl pH 7.5, 200 mM NaCl, 1 mM CaCl2, 1 µM ZnCl2, 0.05% Brij-35, and 1% DMSO). Incubation of the enzyme and inhibitor solutions occurred for 15 min at room temperature; fluorogenic substrate solution (OmniMMP® = Mca-Pro-Leu-Gly-Leu-Dpa-Ala-Arg-NH2, Enzo Life Sciences, 2.5 µM final concentration or OmniMMP®RED = TQ3-GABA-Pro-Cha-Abu-Smc-His-Ala-Dab (6′-TAMRA)-Ala-Lys-NH2, Enzo Life Sciences, and 1 µM final concentration) was subsequently added. The assay was incubated for 2–4 h at 37 °C, after which a Perkin–Elmer Victor V3 plate reader was used to measure fluorescence (λex= 340 nm, λem = 405 nm or λex = 545 nm, λem = 572 nm). Included in the assay were control wells lacking any inhibitor. MMP activity was thus determined and expressed in relative fluorescence units (RFU). Percent inhibition was calculated from control wells and IC50 values were determined using GraphPad Prism 5.0 and are shown as mean ± SEM of at least three independent measurements, which were performed in triplicate.

MMP-9 = molecular target: T2, MMP-9 (Homo sapiens, UniProt P14780); assay: fluorometric MMP inhibition assay, MMP-9 catalytic domain; assay type: biochemical; conditions: for Ligand Efficiency MMP-9: calculated from IC50 values of Table 2; for IC50: catalytic domain, fluorometric assay, mean ± SEM of at least 3 experiments
T2 construct: Catalytic domains of MMP-2, -8, -9, and -13 were obtained from Enzo Life Sciences; purchased Enzo Life Sciences
T2 sequence (P14780 107-444 limits assumed): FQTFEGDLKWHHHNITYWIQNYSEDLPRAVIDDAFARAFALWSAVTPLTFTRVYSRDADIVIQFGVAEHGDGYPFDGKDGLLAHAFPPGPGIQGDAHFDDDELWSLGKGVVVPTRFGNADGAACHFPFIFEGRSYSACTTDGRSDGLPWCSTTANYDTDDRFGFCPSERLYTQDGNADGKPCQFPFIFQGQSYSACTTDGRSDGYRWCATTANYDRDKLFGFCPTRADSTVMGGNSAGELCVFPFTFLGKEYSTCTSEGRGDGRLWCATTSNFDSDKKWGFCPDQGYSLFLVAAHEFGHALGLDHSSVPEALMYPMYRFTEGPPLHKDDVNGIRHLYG
Procedure: as §1

MMP-13 = molecular target: T3, MMP-13 (Homo sapiens, UniProt P45452); assay: fluorometric MMP inhibition assay, MMP-13 catalytic domain; assay type: biochemical; conditions: for Ligand Efficiency MMP-13: calculated from IC50 values of Table 2; for IC50: catalytic domain, fluorometric assay, mean ± SEM of at least 3 experiments; for Selectivity MMP-2/13 / Selectivity MMP-8/13 / Selectivity MMP-9/13: ratio of IC50 values of Table 2
T3 construct: Catalytic domains of MMP-2, -8, -9, and -13 were obtained from Enzo Life Sciences; purchased Enzo Life Sciences
Procedure: as §1

MMP-8 = molecular target: T4, MMP-8 (Homo sapiens, UniProt P22894); assay: fluorometric MMP inhibition assay, MMP-8 catalytic domain; assay type: biochemical; conditions: for Ligand Efficiency MMP-8: calculated from IC50 values of Table 2; for IC50: catalytic domain, fluorometric assay, mean ± SEM of at least 3 experiments
T4 construct: Catalytic domains of MMP-2, -8, -9, and -13 were obtained from Enzo Life Sciences; purchased Enzo Life Sciences
T4 sequence (P22894 100-262 limits assumed): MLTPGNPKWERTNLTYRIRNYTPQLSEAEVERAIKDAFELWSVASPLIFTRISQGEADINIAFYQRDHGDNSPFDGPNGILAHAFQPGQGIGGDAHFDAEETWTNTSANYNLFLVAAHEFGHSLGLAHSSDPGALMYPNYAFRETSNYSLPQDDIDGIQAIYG
Procedure: as §1

| Structure (SMILES) | Ligand Efficiency MMP-2 (MMP-2) | IC50 (MMP-2) | Ligand Efficiency MMP-9 (MMP-9) | IC50 (MMP-9) | melting point | Ligand Efficiency MMP-13 (MMP-13) | IC50 (MMP-13) | Selectivity MMP-2/13 (MMP-13) | Selectivity MMP-8/13 (MMP-13) | Selectivity MMP-9/13 (MMP-13) | Ligand Efficiency MMP-8 (MMP-8) | IC50 (MMP-8) | selectivity toward MMP-8 (MMP-2 inhibition versus MMP-8) (MMP-2) |
| --- | --- | --- | --- | --- | --- | --- | --- | --- | --- | --- | --- | --- | --- |
| O=P(O)(O)C(CNc1nc2ccc(Cl)cc2s1)P(=O)(O)O [Compound 12, (6-chlorobenzo[d]thiazol-2-amino)ethyl-1,1-bisphosphonic acid] | 0.35 | 4.7 ± 1.1 µM | 0.29 | 36.6 ± 1.8 µM | > 250 °C | 0.40 | 0.82 ± 0.06 µM | 5.73 | 25.98 | 44.63 | 0.31 | 21.3 ± 1.7 µM |  |
| O=C(Nc1ccc2nc(NC(P(=O)(O)O)P(=O)(O)O)sc2c1)c1ccc(Br)cc1 [Compound 6, (6-(4-bromobenzamido)benzo[d]thiazol-2-amino)methyl-1,1-bisphosphonic acid] | 0.22 | 13.8 ± 0.9 µM |  | > 100 µM | > 250 °C | 0.24 | 6.7 ± 0.5 µM | 2.06 | 8.96 | >14.92 | 0.19 | 60 ± 2.6 µM |  |
| O=[N+]([O-])c1ccc2nc(NC(P(=O)(O)O)P(=O)(O)O)sc2c1 [Compound 4, (6-nitrobenzo[d]thiazol-2-amino)methyl-1,1-bisphosphonic acid] | 0.33 | 4.5 ± 0.5 µM | 0.32 | 7.7 ± 1.1 µM | > 250 °C | 0.35 | 2.25 ± 0.15 µM | 2.00 | 4.00 | 3.42 | 0.31 | 9 ± 0.4 µM |  |
| CC(N)C(=O)Nc1ccc2nc(NC(P(=O)(O)O)P(=O)(O)O)sc2c1 (stereo not shown) [Compound 11] | 0.28 | 9.4 ± 2 µM |  | > 100 µM | > 250 °C | 0.23 | 61.9 ± 1.3 µM | 0.15 | 0.87 | >1.62 | 0.23 | 54 ± 6 µM |  |
| O=P(O)(O)C(Nc1nc2ccccc2s1)P(=O)(O)O [Compound 1, (Benzo[d]thiazol-2-amino)methyl-1,1-bisphosphonic acid] | 0.36 | 12.7 ± 0.8 µM |  | > 100 µM |  | 0.38 | 6.5 ± 1.2 µM | 1.95 | 12.97 | >15.4 | 0.30 | 84.3 ± 2.1 µM |  |
| O=P(O)(O)C(Nc1nc2ccc(Cl)cc2s1)P(=O)(O)O [Compound 3, (6-chlorobenzo[d]thiazol-2-amino)methyl-1,1-bisphosphonic acid] | 0.38 | 2.64 ± 0.04 µM | 0.32 | 18.7 ± 2.9 µM | > 250 °C | 0.41 | 1.23 ± 0.12 µM | 2.15 | 11.87 | 15.20 | 0.33 | 14.6 ± 0.2 µM |  |
| O=C(Nc1ccc2nc(NC(P(=O)(O)O)P(=O)(O)O)sc2c1)c1ccc([N+](=O)[O-])cc1 [Compound 7, (6-(4-nitrobenzamido)benzo[d]thiazol-2-amino)methyl-1,1-bisphosphonic acid] | 0.27 | 0.98 ± 0.16 µM | 0.23 | 5.4 ± 1.1 µM | > 250 °C | 0.28 | 0.5 ± 0.01 µM | 1.96 | 13.40 | 10.80 | 0.23 | 6.7 ± 0.8 µM | 6.84 |
| O=C(Cc1ccccc1)Nc1ccc2nc(NC(P(=O)(O)O)P(=O)(O)O)sc2c1 [Compound 8, (6-(2-phenylacetamido)benzo[d]thiazol-2-amino)methyl-1,1-bisphosphonic acid] | 0.27 | 2.4 ± 0.5 µM | 0.22 | 22 ± 8 µM | > 250 °C | 0.24 | 9.3 ± 0.7 µM | 0.26 | 1.16 | 2.37 | 0.23 | 10.8 ± 3.1 µM |  |
| O=C(Nc1ccccc1)Nc1ccc2nc(NC(P(=O)(O)O)P(=O)(O)O)sc2c1 [Compound 9, (6-(3-phenylureido)benzo[d]thiazol-2-amino)methyl-1,1-bisphosphonic acid] | 0.26 | 3 ± 0.4 µM | 0.23 | 13.6 ± 1.4 µM | > 250 °C | 0.23 | 11.5 ± 1.9 µM | 0.26 | 1.30 | 1.18 | 0.23 | 15 ± 5 µM |  |
| O=C1c2ccccc2C(=O)N1c1ccc2nc(NC(P(=O)(O)O)P(=O)(O)O)sc2c1 [Compound 10, (6-(1,3-dioxoisoindolin-2-yl)benzo[d]thiazol-2-amino)methyl-1,1-bisphosphonic acid] | 0.26 | 1.69 ± 0.08 µM | 0.24 | 5.4 ± 1.6 µM | > 250 °C | 0.23 | 10.9 ± 2.4 µM | 0.16 | 1.10 | 0.50 | 0.23 | 12 ± 0.4 µM |  |
| O=C(Nc1ccc2nc(NC(P(=O)(O)O)P(=O)(O)O)sc2c1)c1ccccc1 [Compound 5, (6-benzamidobenzo[d]thiazol-2-amino)methyl-1,1-bisphosphonic acid] | 0.29 | 1.16 ± 0.18 µM | 0.25 | 6.3 ± 0.9 µM | > 250 °C | 0.30 | 0.67 ± 0.025 µM | 1.73 | 13.43 | 9.40 | 0.25 | 9 ± 0.3 µM | 7.76 |
| O=P(O)(O)C(Nc1nc2ccc(F)cc2s1)P(=O)(O)O [Compound 2, (6-fluorobenzo[d]thiazol-2-amino)methyl-1,1-bisphosphonic acid] | 0.35 | 9 ± 0.9 µM | 0.31 | 26.5 ± 2.7 µM | > 250 °C | 0.37 | 4.25 ± 0.35 µM | 2.12 | 7.55 | 6.24 | 0.31 | 32.1 ± 1.9 µM |  |
